Broadly, the IC50 is the concentration needed to halve the response being measured. What is called EC50 is the concentration giving half of the maximal effect. A word on the CC50: it is the concentration at which the toxic effect on the cells reaches its halfway point.

We go through 14 compounds from ChEMBL document CHEMBL5331055, “Current medicinal chemistry strategies in the discovery of novel HIV-1 ribonuclease H inhibitors” (Eur J Med Chem, 2022).

In series [1] the target is T1, Human immunodeficiency virus type 1 reverse transcriptase (Human immunodeficiency virus 1, UniProt Q72547). Kind of series: Non-competitive inhibition of HIV reverse transcriptase polymerase activity.
Series [2] concerns the target T1, Human immunodeficiency virus type 1 reverse transcriptase. Put plainly: Inhibition of HIV-1 reverse transcriptase associated RNase H activity.
Series [3] has the same target. Kind of series: Inhibition of HIV-1 RNase H.
The subject of series [4] is Human immunodeficiency virus 1. Kind of series: Antiviral activity against wild type HIV-1 infected in human MT4 cells assessed as inhibition of virus-induced cytopathic effect measured by MTT assay. Type of series: functional, organism-based. The following applies: Human immunodeficiency virus 1, MT4. On the technique in general: Damage to the host cells serves as the signal in cytopathic effect assays.

Series [5] deals with T2, Human immunodeficiency virus type 1 integrase (Human immunodeficiency virus 1, UniProt Q7ZJM1). Put plainly: Inhibition of HIV-1 integrase strand transfer activity.
T2 sequence (Q7ZJM1 whole entry): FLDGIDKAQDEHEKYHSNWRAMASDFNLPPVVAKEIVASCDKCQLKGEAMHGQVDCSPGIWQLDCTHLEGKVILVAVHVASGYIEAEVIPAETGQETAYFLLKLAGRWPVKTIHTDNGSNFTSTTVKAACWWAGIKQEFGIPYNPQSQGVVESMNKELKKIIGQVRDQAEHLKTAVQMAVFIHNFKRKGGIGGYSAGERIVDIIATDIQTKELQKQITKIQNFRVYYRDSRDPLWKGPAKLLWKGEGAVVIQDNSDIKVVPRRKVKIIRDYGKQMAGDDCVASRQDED
Series [6] can be described thus: Inhibition of HIV-1 reverse transcriptase associated RNA dependent DNA polymerase activity incubated for 30 mins by multilabel counter plate reader method. The arrangement: species or system Human immunodeficiency virus 1.
Series [7] can be described thus: Cytotoxicity against human MT4 cells assessed as reduction in cell viability by MTT assay. Type of series: toxicity, cell-based.
Series [8] is described as follows: Inhibition of wild type HIV-1 RNA dependent DNA polymerase activity incubated for 30 mins by multilabel counter plate reader method. The arrangement: species or system Human immunodeficiency virus 1.
Series [9] addresses T1, Human immunodeficiency virus type 1 reverse transcriptase. Put plainly: Inhibition of wild type HIV-1 reverse transcriptase associated DNA polymerase independent RNase H activity using 5-GTTTTCTTTTCCCCCCTGAC-3 Fluorescein/5CAAAAGAAAAGGGGGGACUG-3-Dabcyl RNA/DNA template-primer as substrate by multilabel counter plate reader method.
The test system of series [10] is Human immunodeficiency virus 1. Put plainly: Antiviral activity against wild type HIV-1 IIIB infected in human MT2 cells assessed as protection against virus-induced cytopathicity incubated for 5 days by MTT assay. It is filed as functional, organism-based. As to conditions: Human immunodeficiency virus 1, IIIB, MT2, 120 h.
Series [11] concerns the target T1, Human immunodeficiency virus type 1 reverse transcriptase. Put plainly: Inhibition of N-terminal 6-his-tagged HIV-1 reverse transcriptase RNase H (427 to 560 residues) transformed in Escherichia coli […] (DE3) at pH 7.4 incubated for 4 hrs.
For series [12] the target is unchanged. Put plainly: Inhibition of N-terminal 6-his-tagged HIV-1 reverse transcriptase RNase H (427 to 560 residues) transformed in Escherichia coli […] (DE3) at pH 8.0 incubated for 4 hrs.
Series [13] has the same target. Kind of series: Inhibition of recombinant HIV-1 reverse transcriptase […] RNase H expressed in Escherichia coli M15 using 5-GTTTTCTTTTCCCCCCTGAC-3 Fluorescein/5CAAAAGAAAAGGGGGGACUG-3-Dabcyl RNA/DNA template-primer as substrate incubated for 1 hr by multilabel counter plate reader method.
For series [14], the system named is Human immunodeficiency virus 1. Put plainly: Antiviral activity against HIV-1 infected in human MT4 cells assessed as inhibition of virus-induced cytopathic effect measured after 5 days by spectrophotometric MTT assay. It is filed as functional, organism-based. The following applies: Human immunodeficiency virus 1, MT4, 120 h.
In a further series the test system is MT4. Kind of series: Cytotoxicity against human MT4 cells. Type of series: functional.
The target of series [15] is T1, Human immunodeficiency virus type 1 reverse transcriptase. Kind of series: Inhibition of HIV-1 reverse transcriptase associated RNase H using 5-GTTTTCTTTTCCCCCCTGAC-3 Fluorescein/5CAAAAGAAAAGGGGGGACUG-3-Dabcyl as substrate incubated for 1 hr.
For series [16], the target named is T2, Human immunodeficiency virus type 1 integrase. Kind of series: Inhibition of recombinant HIV-1 His-tagged LEDGF-dependent integrase preincubated for 1 hr followed by compound addition and measured after 90 mins by HTRF method. For orientation: TR-FRET usually uses a lanthanide donor and a delayed reading to cut background.
Series [17] deals with T1, Human immunodeficiency virus type 1 reverse transcriptase. Put plainly: Inhibition of HIV-1 reverse transcriptase RNase H activity expressed in Escherichia coli M15 using 5-GTTTTCTTTTCCCCCCTGAC-3 Fluorescein/5CAAAAGAAAAGGGGGGACUG-3-Dabcyl RNA/DNA template-primer as substrate incubated for 1 hr by multilabel counter plate reader method.
For series [18], the system named is Human immunodeficiency virus 1. Kind of series: Antiviral activity against HIV-1 IIIB infected in human TZM-bl cells assessed as reduction in virus-induced cytopathic effect incubated for 5 days by MTT assay. It is filed as functional, organism-based. The following applies: Human immunodeficiency virus 1, IIIB, 120 h.
A short description of series [19]: Cytotoxicity against human TZM-bl cells assessed as reduction in cell viability incubated for 5 days by MTT assay. It is filed as toxicity, cell-based. As to conditions: time 5 day. For orientation: Formazan colour is commonly taken as a measure of viable cells.
A short description of the next series: in vitro. As to conditions: human, TZM-bl cells.

Description for in vitro: Cytotoxicity against human TZM-bl cells assessed as reduction in cell viability at 20 uM incubated for 3 days by XTT assay

In the case of `O=C1Cc2ccc(-c3ccco3)cc2C(=O)N1O`, the figures for the IC50 in series [1] and in [2] were 2.6 µM and 0.65 µM, respectively.
Take `C=C(C)[C@@H]1CCc2c(c(C)cc(O)c(=O)c2O)C1`: it took 0.6 µM to reach half-maximal inhibition in series [3] (IC50).
Consider `COC(=O)c1c(C)cc(O)c(=O)c(O)c1Br`, for which the IC50 in [3] was determined as 0.13 µM.
As for `CCOC(=O)C(=O)CC(=O)/C=C/c1cccn1Cc1ccc(F)cc1`, in [4], the EC50 was 14 µM.
`Cc1c(O)c([N+](=O)[O-])cc2cc(C(=O)Nc3ccc(O)c(C(=O)O)c3)c(=O)oc12`: the IC50 worked out at 5 µM in series [5] and 6.7 µM in series [6].
In series [6], `COC(=O)c1cc(NC(=O)c2cc3cc([N+](=O)[O-])c(O)c(O)c3oc2=O)ccc1O` yielded an IC50 of 6 µM.
In the case of `Nc1ccc(S(=O)(=O)N2CCN(C(=O)c3cc(O)c(O)c(O)c3)CC2)cc1`, the CC50 in series [7] is more than 19.9 µM.
In the case of `Nc1nn(C(=O)c2ccccc2)c(N)c1C(=S)Nc1ccc(Cl)cc1`, the figures for the IC50 in series [8], in series [9] and in [10] were 17 µM, 7 µM and 25 µM, respectively.
Turning to `Cn1cc(-c2ccc(-c3ccccc3)cc2)s/c1=N/N=C1\C(=O)Nc2ccc(Cl)cc21`, the results for the half-maximal inhibitory concentration (IC50) in series [3] and in series [9] were 10 µM and 9.5 µM, respectively.
Consider `O=C(O)Cc1cc(=O)oc2c(O)c(O)ccc12`, for which the IC50 in series [11] came to 4.8 µM; in series [12] it was 1.1 µM.
Turning to `N#Cc1ccc(-c2c[nH]/c(=N\N=C3/C(=O)Nc4ccccc43)s2)cc1`, the IC50 in series [13] is 1.3 µM; in series [8] it was 9.8 µM.
With `O=C(N/N=C/c1ccc(O)cc1O)c1cc(O)c(O)c(O)c1`, the EC50 in [14] was found to be 17 µM. The CC50 with MT4 is 61 µM. The IC50 in series [15] worked out at 1.7 µM; in series [16] it was 16 µM.
Consider `COc1cc(OC)cc(OC(=O)c2ccc(C(F)(F)F)nc2Nc2cc(Cl)ccc2C)c1`, for which the IC50 in series [17] was determined as 14 µM; in series [6], 16.1 µM. The concentration for a half-maximal effect (EC50) in series [18] came to 5 µM. Besides, the half-maximal cytotoxic concentration (CC50) at 120 h in series [19] was more than 50 µM.
`CC1=C[C@H](c2c(O)ccc([C@@H]3CC(=O)c4c(O)cc(O)cc4O3)c2O)[C@@H](C(=O)c2ccc(O)cc2O)[C@H](c2ccc(O)cc2O)C1` [KUWANON L]: in “in vitro”, the cytotoxic concentration (CC50) at 72 h was more than 20 µM.
